From patent US12389911B2, “Benzimidazole compound or salt thereof, agricultural and horticultural insecticidal and acaricidal agent containing said compound, and method for using same” (NIHON NOHYAKU CO., LTD., priority 2019, dated 2025) come the findings set out here.

What all share (format): in vivo
The subject of data set [1] is Diamondback moth (Plutella xylostella). Put plainly: Insecticidal test on diamondback moth (dip of Chinese cabbage seedlings with laid eggs). The settings on record: 500 ppm, seedlings with laid eggs dipped about 30 seconds, 25° C., 6 days after dip treatment. An excerpt:
Insecticidal Test on Diamondback Moth (Plutella xylostella)
Adults of diamondback moth were released onto Chinese cabbage seedlings and allowed to lay eggs thereon. At 2 days after the release of the adults, the Chinese cabbage seedlings with laid eggs were dipped for about 30 seconds in agrochemical dispersions diluted to 500 ppm, each of which contained a different benzimidazole compound represented by the general formula (1) of the present invention or salt thereof as an active ingredient. After air-dried, the seedlings were kept in a thermostatic chamber at 25° C. At 6 days after the dip treatment, the number of hatched larvae per plot was counted, the corrected mortality rate was calculated according to the formula shown below, and the insecticidal efficacy was evaluated according to the criteria of Test Example 2. This test was conducted in triplicate using 10 adults of diamondback moth per plot. Corrected mortality rate (%)=(Number of hatched larvae in a non-treatment plot−Number of hatched larvae in a treatment plot)/(Number of hatched larvae in a non-treatment plot)×100 [Expression 3]

The test system of data set [2] is Two-spotted spider mite (Tetranychus urticae). Put plainly: Acaricidal action on two-spotted spider mite (kidney bean leaf disk spray). The settings on record: 500 ppm, adult females, 25° C., two days after treatment. In a few lines:
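Kidney bean leaf disks (2 cm) carrying adult female T. urticae were sprayed with compound dispersion at 500 ppm and held at 25 °C. Dead mites counted 2 days later and corrected mortality calculated against untreated plots; 10 adults per plot, in duplicate.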

The subject of data set [3] is Small brown planthopper (Laodelphax striatellus). The experiment in a line: Insecticidal test on small brown planthopper (rice seedling dip). The settings on record: 500 ppm, rice seedlings dipped 30 seconds, ten 3rd-instar larvae, 8 days after inoculation. An excerpt:
Insecticidal Test on Small Brown Planthopper (Laodelphax striatellus)
The benzimidazole compounds represented by the general formula (1) of the present invention or salts thereof were separately dispersed in water and diluted to 500 ppm. Rice plant seedlings (variety: Nihonbare) were dipped in the agrochemical dispersions for 30 seconds. After air-dried, each seedling was put into a separate glass test tube and inoculated with ten 3rd-instar larvae of small brown planthopper, and then the glass test tubes were capped with cotton plugs. At 8 days after the inoculation, survival rates were calculated from the numbers of surviving larvae and dead larvae, the corrected mortality rate was calculated according to the formula shown below, and the insecticidal efficacy was evaluated according to the criteria shown below. Corrected mortality rate (%)=(Survival rate in a non-treatment plot−Survival rate in a treatment plot)/(Survival rate in a non-treatment plot)×100 [Expression 2] Criteria: • A: the corrected mortality rate is 100%. • B: the corrected mortality rate is 90 to 99%. • C: the corrected mortality rate is 80 to 89%. • D: the corrected mortality rate is 50 to 79%.

Turning to `CCS(=O)(=O)n1c(-n2cnc(CCc3ccc(C(F)(F)F)cc3)c2)nc2ccccc21` [Compound 1-11], the “insecticidal efficacy (corrected mortality rate), activity level” value (“insecticidal efficacy” below) in data set [1] is on record as “D or higher”. Further, in data set [2], the “acaricidal efficacy (corrected mortality rate), activity level” value (shortened to “acaricidal efficacy”) is given as “D or higher”.
As to `CCS(=O)(=O)n1c(-n2cc(CCc3ccccc3)cn2)nc2ccccc21` [Compound 2-3], the “insecticidal efficacy” value in data set [1] is on record as “D or higher”. In addition, the “acaricidal efficacy” value in data set [2] is “D or higher”.
Take `CCS(=O)(=O)n1c(-n2nc(C(F)(F)F)cc2C)nc2ccccc21` [Compound 2-17]: in data set [3], the “insecticidal efficacy” value was “D or higher”. For the same compound, the “acaricidal efficacy” value in data set [2] is given as “D or higher”.
For `C=Cc1cn(-c2nc3ccccc3n2S(=O)(=O)CC)nc1C(F)(F)F` [Compound 2-21], the “insecticidal efficacy” value in data set [3] is “D or higher”. Also, in data set [2], the “acaricidal efficacy” value is given as “D or higher”.
`CCS(=O)(=O)n1c(-n2cc(CCc3ccccc3)c(C(F)(F)F)n2)nc2ccccc21` [Compound 2-23]: the “insecticidal efficacy” value in data set [1] is reported as “D or higher”. Moreover, the “acaricidal efficacy” value in data set [2] was “D or higher”.
For the compound `CCS(=O)(=O)n1c(-n2cc(C(=O)Oc3c(C)cccc3C)c(C(F)(F)F)n2)nc2ccccc21` [Compound 2-29], the “insecticidal efficacy” value in data set [3] is listed as “D or higher”. Also, the “acaricidal efficacy” value in data set [2] is given as “D or higher”.
With `CCS(=O)(=O)n1c(-n2cc(SC(C)C)c(C(F)(F)F)n2)nc2ccccc21` [Compound 2-32], the “insecticidal efficacy” value in data set [3] was “D or higher”. The “acaricidal efficacy” value in data set [2] is listed as “D or higher”.
Regarding `CCS(=O)(=O)n1c(-n2ccc(OCC(F)(F)C(F)(F)F)n2)nc2ccccc21` [Compound 2-38], in data set [1], the “insecticidal efficacy” value was “D or higher”. Besides, in data set [2], the “acaricidal efficacy” value is recorded as “D or higher”.
With `CCc1nn(-c2nc3ccccc3n2S(=O)(=O)CC)cc1C(=O)OC(C)(C)C` [Compound 2-49], the “insecticidal efficacy” value in data set [1] is given as “D or higher”. The “acaricidal efficacy” value in data set [2] was “D or higher”.
